“And” between values parts separate entries of the source, which are not always exact repeats. Identical values can stand only once.
Columns and labels:
[1] = tested on: rabbit paracentesis model; assay: Pupillary diameter measurement, rabbit paracentesis model; assay type: in vivo; conditions: individual eye; for Pupillary diameter T1: −180 min: 50 μl drops, basal; for Pupillary diameter T2: −5 min: 5 min before first paracentesis; for Pupillary diameter T3: +115 min: 5 min before second paracentesis; for Pupillary diameter Δ(T3 − T1): +115 min minus −180 min
Procedure: (§1) Each rabbit was placed in a restraint device and tagged with the alphanumeric code. The formulations were instilled (50 μl) into the conjunctival sac of both eyes 180, 120, 90 and 30 min before the first paracentesis; then 15, 30, 90 min after the first paracentesis. To perform the first paracentesis the animals were anaesthetized by intravenous injection of 5 mg/kg Zoletil® (Virbac; 2.5 mg/kg tiletamine HCl and 2.5 mg/kg zolazepam HCl) and one drop of local anesthetic (Novesina®, Novartis) was administered to the eye. Anterior chamber paracentesis was performed with a 26 G needle attached to a tuberculin syringe; the needle was introduced into the anterior chamber through the cornea, taking care not to damage the tissues. Two hours after the first paracentesis, the animals were sacrificed with 0.4 ml Tanax® (Intervet International B.V.) and the second paracentesis was performed. About 100 μl of aqueous humor were removed at the second paracentesis. Aqueous humor was immediately split in four aliquots and stored at −80° C. until analysis. Then both eyes were enucleated and the iris-ciliary body was carefully excised, placed in polypropylene tubes, and stored at −80° C. until analysis.
The pupillary diameter of both eyes was measured with a Castroviejo caliper 180 min and 5 min before the first paracentesis and 5 min before the second paracentesis.

[2] = tested on: PGE2 in the aqueous humor; assay: Prostaglandin E2 (PGE2) measurement in aqueous humor, rabbit paracentesis model; assay type: in vivo; conditions: second paracentesis; for PGE2 level in aqueous humor, Mean: group mean; for PGE2 level in aqueous humor: individual eye
Procedure: as §1
For the quantitative determination of PGE2 in the aqueous humor we used the PGE2 Immunoassay kit (R&D Systems; Cat. No. KGE004; Lot. No. 240010). Eleven microliters or 16 μl of aqueous humor were diluted to 110 μl or 160 μl with the calibrator diluent solution provided with the kit. One hundred microliters of samples and of standards were load into a 96-well plate and recorded in a plate layout. Samples were treated following the assay procedure described in the kit. A microplate reader (GDV, Italy; model DV 990 B/V6) set at 450 nm (wavelength correction at 540 nm) was used for making the calibration and analyzing the samples.

[3] = tested on: human corneal epithelial cells (HCECs); assay: IL-1β-stimulated cytokine production in primary human corneal epithelial cells (30-cytokine Luminex kit); conditions: IL-1β-stimulated HCECs, 18 h
Procedure: Primary HCECs were seeded in 24-well plates. […] Each treatment was performed in triplicate. Media were collected and used for determination of cytokine content using a 30-cytokine Luminex kit.
Median fluorescence intensity (WI) was used to obtain the concentration of each cytokines in pg/ml based on the standard curve of each cytokine assayed by Luminex. The linear range of the standard curve for each cytokine was used for determination of cytokine concentration. Duplicate values for each sample were averaged. Data were expressed as mean±SD. Statistical analysis was performed using one-way ANOVA-Dunnett's test, and P<0.05 was considered statistically significant.

[4] = 0.1% topical formulation, listed as BOL
[5] = 0.5% topical formulation, listed as BOL
[6] = 1% topical formulation, listed as BOL

Cc1ccc2c(NCC(O)(CC(C)(C)c3cc(F)cc4c3OCC4)C(F)(F)F)cccc2n1 (centres unmarked) [BOL-303242-X]
Pupillary diameter T1: −180 min [1, 4]: 6.5 mm (4×) and 7.0 mm (3×) and 7.5 mm | Pupillary diameter T2: −5 min [1, 4]: 6.5 mm (3×) and 7.0 mm (4×) and 7.5 mm | Pupillary diameter T3: +115 min [1, 4]: 5.0 mm (2×) and 6.0 mm (3×) and 6.5 mm and 5.5 mm (2×) | Pupillary diameter Δ(T3 − T1) [1, 4]: −1.5 mm (4×) and −0.5 mm (2×) and −1.0 mm (2×) | Pupillary diameter T1: −180 min [1, 5]: 8.0 mm (3×) and 7.0 mm (3×) and 7.5 mm (2×) | Pupillary diameter T2: −5 min [1, 5]: 8.0 mm (3×) and 7.0 mm (4×) and 7.5 mm | Pupillary diameter T3: +115 min [1, 5]: 6.5 mm (4×) and 6.0 mm (2×) and 7.0 mm (2×) | Pupillary diameter Δ(T3 − T1) [1, 5]: −1.5 mm (2×) and −0.5 mm (2×) and −1.0 mm (4×) | Pupillary diameter T1: −180 min [1, 6]: 6.0 mm (3×) and 6.5 mm (5×) | Pupillary diameter T2: −5 min [1, 6]: 6.0 mm (2×) and 6.5 mm (4×) and 7.0 mm (2×) | Pupillary diameter T3: +115 min [1, 6]: 5.5 mm (2×) and 5.0 mm (4×) and 6.0 mm (2×) | Pupillary diameter Δ(T3 − T1) [1, 6]: −0.5 mm (3×) and −1.5 mm (2×) and −1.0 mm (3×) | PGE2 level in aqueous humor, Mean ([2]; 0.1% topical formulation): 1.452 ng/mL | PGE2 level in aqueous humor [2, 4]: 1.62 ng/mL and 1.88 ng/mL and 2.15 ng/mL and 0.70 ng/mL and 1.34 ng/mL and 1.03 ng/mL | PGE2 level in aqueous humor, Mean ([2]; 0.5% topical formulation): 1.384 ng/mL | PGE2 level in aqueous humor [2, 5]: 2.31 ng/mL and 2.59 ng/mL and 0.53 ng/mL and 0.75 ng/mL and 0.80 ng/mL and 1.62 ng/mL and 1.09 ng/mL | PGE2 level in aqueous humor, Mean ([2]; 1% topical formulation): 2.168 ng/mL | PGE2 level in aqueous humor [2, 6]: 0.50 ng/mL and 1.87 ng/mL and 1.71 ng/mL and 4.04 ng/mL and 1.11 ng/mL and 3.78 ng/mL | Potency of inhibition of IL-1β-stimulated production of GM-CSF, IL-8, and RANTES relative to dexamethasone [3]: less potency compared to dexamethasone | Inhibition of IL-1β-stimulated cytokine production on 6 cytokines (IL-6, IL-7, MCP-1, TGF-α, TNF-α and VEGF) ([3]; comparable potency of both): significantly inhibited

C[C@@H]1C[C@H]2[C@@H]3CCC4=CC(=O)C=C[C@]4(C)[C@@]3(F)[C@@H](O)C[C@]2(C)[C@@]1(O)C(=O)CO [Dex, dexamethasone, reference compound]
Pupillary diameter T1: −180 min ([1]; 0.1% topical formulation): 6.0 mm and 7.0 mm (2×) and 5.5 mm (2×) and 6.5 mm (3×) | Pupillary diameter T2: −5 min ([1]; 0.1% topical formulation): 5.5 mm and 6.5 mm (3×) and 6.0 mm (2×) and 7.0 mm and 7.5 mm | Pupillary diameter T3: +115 min ([1]; 0.1% topical formulation): 5.5 mm (3×) and 6.0 mm (2×) and 4.5 mm and 5.0 mm and 6.5 mm | Pupillary diameter Δ(T3 − T1) ([1]; 0.1% topical formulation): −0.5 mm (3×) and −1.5 mm (2×) and 0.5 mm and 0.0 mm and −2.0 mm | PGE2 level in aqueous humor, Mean ([2]; 0.1% topical formulation): 2.263 ng/mL | PGE2 level in aqueous humor ([2]; 0.1% topical formulation): 2.51 ng/ml and 2.32 ng/ml (2×) and 2.10 ng/ml and 3.03 ng/ml and 1.30 ng/ml

Source: US20110077270A1, “Compositions and Methods for Treating Ocular Inflammation with Lower Risk of Increased Intraocular Pressure” (priority 2009, published 2011)
